According to patent publication US12583856B2, “Inhibitors of protein kinase A” (Blueprint Medicines Corporation, priority 2021, dated 2026):

Key:
[1] = tested on: PKA (phosphorylation of VASP on Serine 157); assay: Cellular potency assay: P-VASP(157) HTRF in Forskolin-stimulated Huh7 cells; format: cell-based; conditions: Homo sapiens, Huh-7, 4 hours compound, 5 μM Forskolin 30 minutes, read-out: Phos VASP(S157) IC50
Text: PKA directly phosphorylate VASP on Serine 157. Phosphorylation of VASP on Serine 157. P-VASP(157) was therefore used as a readout of PKA cellular activity. P-VASP(157) was detected with a HTRF assay, which is based on a TR-FRET sandwich immunoassay-based format comprising two specific anti-VASP antibodies following the manufactors protocol (Cisbio, Catalog No. 63ADK066PEH). PKA was activated in the assay by the addition of Forskolin (Sigma-Aldrich, Catalog No. F3917).
Dose response in Forskolin-stimulated human Huh7 cells was measured as follows. Briefly, Huh7 cells were plated at a density of 2×10^4 cells per well in a 384-well opti-well cell culture plate in 15 μl of serum- and phenol-free Dulbecco's Modified Eagle Medium (DMEM, Gibco Catalog No. 21063-029), and incubated for over night at 37° C., 5% CO2. The next day, 3 μl of a dosed concentration series of test compound (0.24%) DMSO final concentration) was added to the wells, and the cells were incubated for an additional 4 hours at 37° C., 5% CO2. 2 μl of Forskolin was added at a final concentration of 5 μM and the plates were incubated for 30 minutes at 37° C., 5% CO2. 5 μl of lysis buffer containing 1% HALT protease cocktail inhibitors (ThermoFisher, Catalog No. 78430), was added to the cells and the mixture was incubated under gentle shaking for 30 min at room temperature. 10 μl of this lysate was transferred to a 384-well proxi plate and 2.5 μL of the premixed antibody solution was added. An antibody solution was prepared by combining phopho-VASP cryptate antibody and phospho-VASP d2 antibody, at twenty-fold dilution into a buffer solution following the manufactors' protocol. The lysate and antibody mixture was incubated for either 3 h at room temperature or overnight at 4° C. The fluorescence emission at two different wavelengths (665 nm and 620 nm) was read on an EnVision instrument.

PRKACA = target: T1, PRKACA (Homo sapiens, UniProt P17612); assay: PRKACA assay at Km (EZ Reader 2 electrophoretic mobility shift); format: biochemical; conditions: 5 μM ATP (Km), 1 μM Kemptide, 90 minutes at 25 C; read-out: Enz PRKACA IC50
T1 construct: purchased Millipore 539482
Method: A Perkin Elmer electrophoretic mobility shift platform (the EZ Reader 2) was used to assess the activity of test compounds against a kinase of interest. Fluorescently labeled substrate peptide was incubated in the presence of kinase, ATP, and the test compound, so that a portion of the peptide was phosphorylated by the enzyme. At the end of the reaction, the mix of phosphorylated (product) and non-phosphorylated (substrate) peptide containing solutions was passed through the microfluidic system of the Perkin Elmer EZ Reader 2 under an applied potential difference. The presence of the phosphate group on the product peptide provided a difference in mass and charge between those of the substrate peptide, resulting in a separation of the substrate and product pools in the sample. As the stopped solutions passed under the instrument's LED light the phosphorylated and un-phosphorylated fluorophore bound peptides were detected and resolved as separate peaks. The ratio between these peaks therefore reflected the test compound's impact on the kinase at that concentration in that well under those conditions.
PRKACA assay at Km: In each well of a 384-well plate, 0.007 ng/ul (0.18 nM) of PRKACA enzyme (Millipore: 539482) was incubated in a total of 12.5 μl of buffer (100 mM HEPES pH 7.5, 0.015% Brij 35, 10 mM MgCl2, 1 mM DTT) with 1 μM Kemptide peptide substrate (5-FAM-LRRASLG) (Anaspec 29933) and 5 μM ATP at 25 C for 90 minutes in the presence or absence of a dosed concentration series of test compounds (1% DMSO final concentration). The reaction was stopped by the addition of 80 μl of Stop buffer (100 mM HEPES pH 7.5, 0.015% Brij 35, 35 mM EDTA and 0.2% of Coating Reagent 3 (Perkin Elmer)). The plate was then read on the EZ Reader 2 (protocol settings: −2.0 psi, upstream voltage −700, downstream voltage −2700, post sample sip 60 seconds). Data was normalized to 0% and 100% inhibition controls and the IC50 calculated using a 4-parameter fit using GraphPad Prism.

Question: `O=C(N[C@H]1C[C@H](O)c2cccc(F)c21)c1ccc(-c2ccnc3[nH]ccc23)nc1` (single isomer, unassigned) [Compound 118] was tested. Which IC50 [1] did it give?
Answer: 0.01 to 100 nM

Question: What about the IC50 (PRKACA) of the same compound?
Answer: ≤ 1 nM

Question: Which results are given for `C[C@@H]1c2cccc(F)c2[C@@H](NC(=O)c2ccc(-c3ccnc4[nH]ccc34)nc2)[C@H]1O` (single isomer, unassigned) [Compound 122]?
Answer: IC50 [1]: < 50 nM; IC50 (PRKACA): ≤ 1 nM

Question: How did the IC50 [1] turn out when `O=C(N[C@H]1c2c(ccc(F)c2F)OC[C@H]1O)c1ccc(-c2ccnc3[nH]ccc23)nc1` (stereo in doubt) [Compound 140, N-[(3S,4S)-5,6-Difluoro-3-hydroxy-3,4-dihydro-2H-1-benzopyran-4-yl]-6-{1H-pyrrolo[2,3-b]pyridin-4-yl}pyridine-3-carboxamide] was run?
Answer: 0.01 to 100 nM

Question: What about the IC50 (PRKACA) of the same compound?
Answer: ≤ 1 nM

Question: How did the IC50 [1] turn out when `O=C(N[C@H]1CCc2ccc(F)cc21)c1ccc(-c2ccnc3[nH]ccc23)nc1` [Compound 105, N-[(1S)-6-Fluoro-2,3-dihydro-1H-inden-1-yl]-6-{1H-pyrrolo[2,3-b]pyridin-4-yl}pyridine-3-carboxamide] was run?
Answer: 0.01 to 100 nM

Question: And the IC50 (PRKACA)?
Answer: 1.01 to 5 nM

Question: Which IC50 [1] does the source give for `O=C(N[C@H]1CCc2cccc(F)c21)c1ccc(-c2ccnc3[nH]ccc23)nc1` [Compound 106] here?
Answer: 0.01 to 100 nM

Question: What about the IC50 (PRKACA) of the same compound?
Answer: ≤ 1 nM

Question: How did the IC50 [1] turn out when `O=C(N[C@@H]1c2ccccc2OC[C@H]1F)c1ccc(-c2ccnc3[nH]ccc23)cc1` [Compound 116, N-[(3S,4R)-3-Fluoro-3,4-dihydro-2H-1-benzopyran-4-yl]-4-{1H-pyrrolo[2,3-b]pyridin-4-yl}benzamide] was run?
Answer: 0.01 to 100 nM

Question: What about the IC50 (PRKACA) of the same compound?
Answer: ≤ 1 nM

Question: With `O=C(N[C@@H]1c2c(F)cccc2OC[C@@H]1O)c1ccc(-c2ccnc3[nH]ccc23)cc1` [Compound 124] as the compound, how does the IC50 [1] read?
Answer: < 50 nM

Question: And the IC50 (PRKACA)?
Answer: ≤ 1 nM

Question: For `O=C(N[C@@H]1c2c(ccc(F)c2F)C[C@@H]1O)c1ccc(-c2ccnc3[nH]ccc23)nc1` [Compound 132, N-[(1R,2S)-6,7-Difluoro-2-hydroxy-2,3-dihydro-1H-inden-1-yl]-6-{1H-pyrrolo[2,3-b]pyridin-4-yl}pyridine-3-carboxamide], which IC50 [1] is on record?
Answer: < 50 nM

Question: What about the IC50 (PRKACA) of the same compound?
Answer: ≤ 1 nM

Question: For `O=C(N[C@@H]1c2ccccc2C[C@H]1N1CCC1)c1ccc(-c2ccnc3[nH]ccc23)nc1` [Compound 133], which IC50 [1] is on record?
Answer: 0.01 to 100 nM

Question: What about the IC50 (PRKACA) of the same compound?
Answer: 1.01 to 5 nM

Question: `C[C@H]1Oc2cccc(F)c2[C@@H](NC(=O)c2ccc(-c3ccnc4[nH]ccc34)nc2)[C@@H]1O` [Compound 137] was tested. Which IC50 [1] did it give?
Answer: 0.01 to 100 nM

Question: What about the IC50 (PRKACA) of the same compound?
Answer: ≤ 1 nM

Question: Which results are given for `Cc1c[nH]c2nccc(-c3ccc(C(=O)N[C@H]4CCOc5cc(F)cc(F)c54)cn3)c12` [Compound 138]?
Answer: IC50 [1]: 0.01 to 100 nM; IC50 (PRKACA): ≤ 1 nM

Question: How did the IC50 [1] turn out when `O=C(N[C@H]1CCOc2ccc(Cl)c(F)c21)c1ccc(-c2ccnc3[nH]ccc23)nc1` [Compound 143] was run?
Answer: < 50 nM

Question: What about the IC50 (PRKACA) of the same compound?
Answer: ≤ 1 nM

Question: Which IC50 [1] does the source give for `CC1CN([C@@H]2Cc3ccccc3[C@H]2NC(=O)c2ccc(-c3ccnc4[nH]ccc34)nc2)C1` [Compound 145] here?
Answer: 0.01 to 100 nM

Question: What about the IC50 (PRKACA) of the same compound?
Answer: ≤ 1 nM

Question: For `CCN(CC)[C@@H]1Cc2ccccc2[C@H]1NC(=O)c1ccc(-c2ccnc3[nH]ccc23)nc1` [Compound 147], which IC50 [1] is on record?
Answer: < 50 nM

Question: And the IC50 (PRKACA)?
Answer: 1.01 to 5 nM

Question: How did the IC50 [1] turn out when `C[C@H]1Oc2ccc(F)c(F)c2[C@@H](NC(=O)c2ccc(-c3ccnc4[nH]ccc34)nc2)[C@@H]1O` [Compound 149] was run?
Answer: < 50 nM

Question: And the IC50 (PRKACA)?
Answer: ≤ 1 nM

Question: With `Cc1cccc2c1[C@@H](NC(=O)c1ccc(-c3ccnc4[nH]ccc34)nc1)[C@H](N1CCCC1)C2` [Compound 153] as the compound, how does the IC50 [1] read?
Answer: 0.01 to 100 nM

Question: What about the IC50 (PRKACA) of the same compound?
Answer: ≤ 1 nM

Question: Which IC50 [1] does the source give for `O=C(N[C@H]1C[C@H](O)c2cc(C(F)F)cc(F)c21)c1ccc(-c2ccnc3[nH]ccc23)nc1` [Compound 155] here?
Answer: < 50 nM

Question: And the IC50 (PRKACA)?
Answer: ≤ 1 nM

Question: Which IC50 [1] does the source give for `O=C(N[C@H]1C[C@@H](O)c2cc(C(F)F)cc(F)c21)c1ccc(-c2ccnc3[nH]ccc23)nc1` [Compound 156] here?
Answer: < 50 nM

Question: What about the IC50 (PRKACA) of the same compound?
Answer: ≤ 1 nM

Question: For `O=C(N[C@@H]1c2ccccc2C[C@H]1N1CC[C@H](F)C1)c1ccc(-c2ccnc3[nH]ccc23)nc1` [Compound 158], which IC50 [1] is on record?
Answer: 0.01 to 100 nM

Question: What about the IC50 (PRKACA) of the same compound?
Answer: ≤ 1 nM

Question: For `O=C(N[C@@H]1c2c(Cl)cccc2C[C@H]1N1C[C@@H](O)[C@H](F)C1)c1ccc(-c2ccnc3[nH]ccc23)nc1` [Compound 184], which IC50 (PRKACA) is on record?
Answer: 1.01 to 5 nM
